Measured values published in patent US20120245346A1, “MALEIC ACID SALT AND CRYSTAL THEREOF” (Kyorin Pharmaceutical Co., Ltd., priority 2009, published 2012).
Structures can show the parent of a compound that is named as a salt. Where two headings read alike, the source gives them in different places.

Columns and labels:
Type in all cases: physicochemical
[1] = Solubility in water (Test Example 1, Stage 1)
Method: (§1) As the monomaleic acid salt, the sample in Example 5 was used in Stage 1 of Table 2, and the sample in Example 1 was used in Stage 2. The other samples in respective Stages of Table 2 were prepared in accordance with Patent Literature 1. The solubility and the stability as a drug substance of the respective samples were examined in Stage 1, and the crystallinity, phenomenon of crystal polymorphism, and presence or absence of adhesion water were examined in Stage 2.
Solubility: When the ratio of dissolved sample to water is 10 mg/mL or more, the solubility of the sample is represented as circle (◯), and when the ratio is 10 mg/mL or less, the solubility is represented as cross mark (x).

[2] = Stability as a drug substance, 2-week storage, HPLC assay of mainly degradation product (Test Example 1, Stage 1); settings: 2-week storage at 25° C./75% RT (closed system), increase in HPLC area % of mainly degradation product
Method: as §1
Stability as a drug substance: The sample after 2-week storage at 25° C./75% RT (closed system) was assayed by high-performance liquid chromatography (HPLC) under conditions described below. When the increase in area percentage (%) of a mainly degradation product is less than +0.5%, the stability of drug substances is represented as circle (◯), and when the increase is +0.5% or more, the stability of drug substances is represented as cross mark (x). In Test Example 2, the mainly degradation product was assayed by HPLC under the same conditions.
Conditions of HPLC in test of stability as a drug substance
column: Atlantis dC18, 2.1 mm φ×15 cm, 3 μm Measurement wavelength: 254 nm column temperature: 40° C. Flow rate: 0.2 mL/min Mobile phase A: 0.05% formic acid aqueous solution Mobile phase B: 0.05% formic acid-acetonitrile solution Transfer of mobile phases: The mixed ratio of mobile phase A and mobile phase B is changed as shown in Table 1 to control the concentration gradient.

[3] = Adhesion water by thermal analysis TG-DTA (Test Example 1, Stage 2); settings: for ADHESION WATER: decrease (%) in TG-DTA chart at about 50° C., Stage 2; for adhesion water (in words): TG-DTA decrease (%) at about 50° C.
Method: (§2) A sample (5 mg) was placed in a sample pan (a container made of aluminum), and thermal analysis TG-DTA of the sample was performed using EXSTAR 6000 thermal analyzer manufactured by Seiko Instruments Inc.
as §1
Adhesion water: When decrease (%) in the chart obtained from the thermal analysis TG-DTA is seen at about 50° C., the adhesion water is represented as “Presence,” and when the decrease (%) is not seen, the adhesion water is represented as “None.”

[4] = Crystallinity by powder x-ray diffraction (Test Example 1, Stage 2); settings: for CRYSTALLINITY: powder x-ray diffraction peak intensity, Stage 2; for crystallinity (in words): powder x-ray diffraction
Method: (§3) A sample (about 100 mg) was (lightly) pulverized in an agate mortar, and a packed section of a sample flat holder made of glass was filled with the pulverized sample. Powder x-ray diffraction of the sample was then performed using RINT2200 powder x-ray diffractometer (Rigaku Corporation).
as §1
Crystallinity: In powder x-ray diffraction, when a peak intensity is 5000 cps or more, the crystallinity is represented as “High,” and when it is 5000 cps or less, the crystallinity is represented as “Low.”

[5] = Development of crystal polymorphism by TG-DTA and powder x-ray diffraction (Test Example 1, Stage 2); settings: TG-DTA versus powder x-ray diffraction
Method: as §2, §3, §1
Development of crystal polymorphism: For crystals of the same salt, when the crystal structure shown by the thermal analysis TG-DTA is different from that shown by the powder x-ray diffraction, the development of crystal polymorphism is represented as “Presence”. On the other hand, when the thermal analysis TG-DTA and the powder x-ray diffraction show the same crystal structure, the development of crystal polymorphism is represented as “None.”

[6] = ratio of dissolved sample to water, Stage 1

For `CCc1cc(OC)cc2nc(-c3cccnc3N3CC[C@H](N(C)C)C3)oc(=O)c12` [DIHYDROCHLORIDE, 2-[2-((S)-3-dimethylaminopyrrolidin-1-yl)pyridin-3-yl]-5-ethyl-7-methoxy-4H-benz[d][1,3]oxazin-4-one], the SOLUBILITY [1, 6] was “∘”, the solubility in water ([1]; water) was no less than 10000 µg/mL and the “STABILITY AS DRUG SUBSTANCE” value [2] was “x (when the increase is +0.5% or more)”. For the same molecule, the “ADHESION WATER” value [3] was “PRESENCE”.

With `CCc1cc(OC)cc2nc(-c3cccnc3N3CC[C@H](N(C)C)C3)oc(=O)c12` [FREE FORM, 2-[2-((S)-3-dimethylaminopyrrolidin-1-yl)pyridin-3-yl]-5-ethyl-7-methoxy-4H-benz[d][1,3]oxazin-4-one] the SOLUBILITY [1, 6] was “x (when the ratio is 10 mg/mL or less)”, the solubility in water ([1]; water, listed as free base) was no more than 2000 µg/mL and the “STABILITY AS DRUG SUBSTANCE” value [2] was “∘”. For the same molecule, the CRYSTALLINITY [4] was “LOW” and the “PHENOMENON OF CRYSTAL POLYMORPHISM” value [5] was “AMORPHOUS”.

For `CCc1cc(OC)cc2nc(-c3cccnc3N3CC[C@H](N(C)C)C3)oc(=O)c12.Cl.O` [MONOHYDROCHLORIDE, 2-[2-((S)-3-dimethylaminopyrrolidin-1-yl)pyridin-3-yl]-5-ethyl-7-methoxy-4H-benz[d][1,3]oxazin-4-one hydrochloride monohydrate], the SOLUBILITY [1, 6] was “∘”, the SOLUBILITY ([1]; water, read-out: solubility in water) was no less than 10000 µg/mL and the “STABILITY AS DRUG SUBSTANCE” value [2] was “∘”. The “crystallinity (in words)” value [4] was “low crystallinity and high amorphous content”, the CRYSTALLINITY [4] was “LOW” and the “PHENOMENON OF CRYSTAL POLYMORPHISM” value [5] was “PRESENCE”. For the same molecule, the “adhesion water (in words)” value [3] was “adhesion water was present” and the “ADHESION WATER” value [3] was “PRESENCE”.

For `CCc1cc(OC)cc2nc(-c3cccnc3N3CC[C@H](N(C)C)C3)oc(=O)c12` [MONOMALEIC ACID, 2-[2-((S)-3-dimethylaminopyrrolidin-1-yl)pyridin-3-yl]-5-ethyl-7-methoxy-4H-benz[d][1,3]oxazin-4-one monomaleate], the SOLUBILITY ([1]; ratio of dissolved sample to water, Stage 1, monomaleate) was “∘”, the solubility in water ([1]; water, listed as monomaleic acid salt, monomaleate) was no less than 10000 µg/mL and the “STABILITY AS DRUG SUBSTANCE” value ([2]; monomaleate) was “∘”. For the same molecule, the “crystallinity (in words)” value [4] was “high crystallinity”, the CRYSTALLINITY ([4]; monomaleate) was “HIGH” and the “PHENOMENON OF CRYSTAL POLYMORPHISM” value ([5]; monomaleate) was “PRESENCE”. For the same molecule, the “adhesion water (in words)” value [3] was “adhesion water was not present” and the “ADHESION WATER” value ([3]; monomaleate) was “NONE”.

For `CCc1cc(OC)cc2nc(-c3cccnc3N3CC[C@H](N(C)C)C3)oc(=O)c12` [½D-TARTARIC ACID, 2-[2-((S)-3-dimethylaminopyrrolidin-1-yl)pyridin-3-yl]-5-ethyl-7-methoxy-4H-benz[d][1,3]oxazin-4-one], the SOLUBILITY [1, 6] was “∘”, the solubility in water ([1]; water, listed as 1/2D-tartaric acid salt) was no less than 10000 µg/mL and the “STABILITY AS DRUG SUBSTANCE” value [2] was “x (when the increase is +0.5% or more)”. For the same molecule, the “ADHESION WATER” value [3] was “PRESENCE”.

With `CCc1cc(OC)cc2nc(-c3cccnc3N3CC[C@H](N(C)C)C3)oc(=O)c12` [¾L-TARTARIC ACID, 2-[2-((S)-3-dimethylaminopyrrolidin-1-yl)pyridin-3-yl]-5-ethyl-7-methoxy-4H-benz[d][1,3]oxazin-4-one] the SOLUBILITY ([1]; water, ratio of dissolved sample to water, Stage 1, read-out: SOLUBILITY) was no more than 10000 µg/mL, the “STABILITY AS DRUG SUBSTANCE” value [2] was “∘” and the “ADHESION WATER” value [3] was “PRESENCE”.
